Measurements from patent publication US20240002342A1, “HERBICIDAL DERIVATIVES” (SYNGENTA CROP PROTECTION AG, priority 2020, published 2024).

Key:
Type in all cases: in vivo
Lolium perenne (LOLPE) [1] = assay: Pre-emergence herbicidal test; details: 1000 g/ha unless otherwise stated
[2] = test system: Amaranthus retoflexus (AMARE); assay: Pre-emergence herbicidal test; details: 1000 g/ha unless otherwise stated
[3] = test system: Amaranthus retoflexus (AMARE); assay: Post-emergence herbicidal test; details: 1000 g/ha unless otherwise stated, evaluated after 13 days
Procedure: (§1) Seeds of a variety of test species are sown in standard soil in pots (Amaranthus retoflexus (AMARE), Solanum nigrum (SOLNI), Setaria faberi (SETFA), Lolium perenne (LOLPE), Echinochloa crus-galli (ECHCG), Ipomoea hederacea (IPOHE)). After 8 days cultivation under controlled conditions in a glasshouse (at 24° C./16° C., day/night; 14 hours light; 65% humidity), the plants are sprayed with an aqueous spray solution derived from the formulation of the technical active ingredient in acetone/water (50:50) solution containing 0.5% Tween 20 (polyoxyethelyene sorbitan monolaurate, CAS RN 9005-64-5). Compounds are applied at 1000 g/ha unless otherwise stated. The test plants are then grown in a glasshouse under controlled conditions in a glasshouse (at 24° C./16° C., day/night; 14 hours light; 65% humidity) and watered twice daily. After 13 days the test is evaluated for the percentage damage caused to the plant. The biological activities are shown in the following table on a five-point scale (5=81-100%; 4=61-80%; 3=41-60%; 2=21-40%; 1=0-20%).

[4] = test system: Echinochloa crus-galli (ECHCG); assay: Post-emergence herbicidal test; details: 1000 g/ha unless otherwise stated, evaluated after 13 days
Procedure: as §1

[5] = test system: Ipomoea hederacea (IPOHE); assay: Post-emergence herbicidal test; details: 1000 g/ha unless otherwise stated, evaluated after 13 days
Procedure: as §1

Setaria faberi (SETFA) [6] = assay: Post-emergence herbicidal test; details: 1000 g/ha unless otherwise stated, evaluated after 13 days
Procedure: as §1

Lolium perenne (LOLPE) [7] = assay: Post-emergence herbicidal test; details: 1000 g/ha unless otherwise stated, evaluated after 13 days
Procedure: as §1

Solanum nigrum (SOLNI) [8] = assay: Post-emergence herbicidal test; details: 1000 g/ha unless otherwise stated, evaluated after 13 days
Procedure: as §1

[9] = test system: Echinochloa crus-galli (ECHCG); assay: Pre-emergence herbicidal test; details: 1000 g/ha unless otherwise stated
Solanum nigrum (SOLNI) [10] = assay: Pre-emergence herbicidal test; details: 1000 g/ha unless otherwise stated
[11] = test system: Ipomoea hederacea (IPOHE); assay: Pre-emergence herbicidal test; details: 1000 g/ha unless otherwise stated
Setaria faberi (SETFA) [12] = assay: Pre-emergence herbicidal test; details: 1000 g/ha unless otherwise stated

Row | SMILES | percentage damage caused to the plant, LOLPE (five-point scale) (Lolium perenne (LOLPE) [1]) | percentage damage caused to the plant, AMARE (five-point scale) [2] | percentage damage caused to the plant, AMARE (five-point scale) [3] | percentage damage caused to the plant, ECHCG (five-point scale) [4] | percentage damage caused to the plant, IPOHE (five-point scale) [5] | percentage damage caused to the plant, SETFA (five-point scale) (Setaria faberi (SETFA) [6]) | percentage damage caused to the plant, LOLPE (five-point scale) (Lolium perenne (LOLPE) [7]) | percentage damage caused to the plant, SOLNI (five-point scale) (Solanum nigrum (SOLNI) [8]) | percentage damage caused to the plant, ECHCG (five-point scale) [9] | percentage damage caused to the plant, SOLNI (five-point scale) (Solanum nigrum (SOLNI) [10]) | percentage damage caused to the plant, IPOHE (five-point scale) [11] | percentage damage caused to the plant, SETFA (five-point scale) (Setaria faberi (SETFA) [12])
1 | C=Cc1c(C)n(CC)c(-c2ccc(Cl)c(Cl)c2)c(C(=O)O)c1=O [Compound 2.001, 2-(3,4-dichlorophenyl)-1-ethyl-6-methyl-4-oxo-5-vinyl-pyridine-3-carboxylic acid] | 4 (4=61-80%) | 1 (1=0-20%) | 1 (1=0-20%) | 2 (2=21-40%) | 4 (4=61-80%) | 4 (4=61-80%) | 4 (4=61-80%) | 1 (1=0-20%) | 3 (3=41-60%) | 1 (1=0-20%) | 3 (3=41-60%) | 4 (4=61-80%)
2 | C#Cc1c(C)n(CC)c(-c2ccc(Cl)c(Cl)c2)c(C(=O)O)c1=O [Compound 2.005, 2-(3,4-dichlorophenyl)-1-ethyl-5-ethynyl-6-methyl-4-oxo-pyridine-3-carboxylic acid] | 1 (1=0-20%) | 1 (1=0-20%) | 5 (5=81-100%) | 3 (3=41-60%) | 4 (4=61-80%) | 5 (5=81-100%) | 5 (5=81-100%) | 4 (4=61-80%) | 1 (1=0-20%) | 4 (4=61-80%) | 4 (4=61-80%) | 4 (4=61-80%)
3 | CCn1c(C)c(C(C)=O)c(=O)c(C(=O)O)c1-c1ccc(Cl)c(Cl)c1 [Compound 2.008, 5-acetyl-2-(3,4-dichlorophenyl)-1-ethyl-6-methyl-4-oxo-pyridine-3-carboxylic acid] | 4 (4=61-80%) | 1 (1=0-20%) | 2 (2=21-40%) | 3 (3=41-60%) | 2 (2=21-40%) | 3 (3=41-60%) | 5 (5=81-100%) | 2 (2=21-40%) | 3 (3=41-60%) | 3 (3=41-60%) | 3 (3=41-60%) | 5 (5=81-100%)
4 | CCn1c(C)c(C(=O)O)c(=O)c(C(=O)O)c1-c1ccc(Cl)c(Cl)c1 [Compound 2.010, 2-(3,4-dichlorophenyl)-1-ethyl-6-methyl-4-oxo-pyridine-3,5-dicarboxylic acid] | 2 (2=21-40%) | 1 (1=0-20%) | 2 (2=21-40%) | 1 (1=0-20%) | 2 (2=21-40%) | 1 (1=0-20%) | 1 (1=0-20%) | 2 (2=21-40%) | 1 (1=0-20%) | 3 (3=41-60%) | 1 (1=0-20%) | 1 (1=0-20%)
5 | C=Cc1c(C)n(CC)c(-c2ccc(Cl)c(Cl)c2)c(C(=O)OC)c1=O [Compound 4.001, methyl 2-(3,4-dichlorophenyl)-1-ethyl-6-methyl-4-oxo-5-vinyl-pyridine-3-carboxylate] | 1 (1=0-20%) | 1 (1=0-20%) | 1 (1=0-20%) | 1 (1=0-20%) | 2 (2=21-40%) | 4 (4=61-80%) | 4 (4=61-80%) | 1 (1=0-20%) | 1 (1=0-20%) | 1 (1=0-20%) | 1 (1=0-20%) | 1 (1=0-20%)
